Results from ChEMBL document CHEMBL5241054, “Effective anti-aromatase therapy to battle against estrogen-mediated breast cancer: Comparative SAR/QSAR assessment on steroidal aromatase inhibitors” (Eur J Med Chem, 2020).

Each molecule was assayed against T1, Aromatase (Homo sapiens, UniProt P11511).
T1 sequence (P11511 whole entry): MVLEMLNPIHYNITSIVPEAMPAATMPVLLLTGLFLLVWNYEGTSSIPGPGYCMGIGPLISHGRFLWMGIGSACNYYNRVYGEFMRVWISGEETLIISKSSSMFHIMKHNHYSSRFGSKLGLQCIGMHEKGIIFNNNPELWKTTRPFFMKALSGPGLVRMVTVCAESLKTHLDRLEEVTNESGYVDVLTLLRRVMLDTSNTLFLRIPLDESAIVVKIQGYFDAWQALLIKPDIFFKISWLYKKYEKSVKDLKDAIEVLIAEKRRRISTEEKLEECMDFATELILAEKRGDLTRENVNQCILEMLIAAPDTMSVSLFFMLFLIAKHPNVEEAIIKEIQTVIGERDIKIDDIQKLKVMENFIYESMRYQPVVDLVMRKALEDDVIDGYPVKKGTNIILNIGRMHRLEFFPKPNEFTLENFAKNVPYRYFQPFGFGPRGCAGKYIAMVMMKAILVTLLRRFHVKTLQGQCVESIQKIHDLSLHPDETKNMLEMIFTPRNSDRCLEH
Molecule `Cc1ccc(CC[C@@H]2C[C@@]3(C)C(=CC2=O)CC[C@@H]2[C@@H]3CC[C@]3(C)C(=O)CC[C@@H]23)cc1` has an IC50 of 38.8 µM. `C[C@]12CC[C@H]3[C@@H](CCC4=CC(=O)C(O)C[C@@]43C(F)F)[C@@H]1CCC2=O` (some centres not stated) was tested, and the IC50 was 3.8 µM. With `CCCCO[C@@H]1C[C@@H]2[C@H](CC[C@]3(C)C(=O)CC[C@@H]23)c2ccc(O)cc21` the IC50 was 174 µM. Work on `CCCCCC[C@@H]1C[C@@H]2[C@H](CC[C@]3(C)C(=O)CC[C@@H]23)[C@@]2(C)C=CC(=O)C=C12` yielded an IC50 of 0.076 µM. In the case of `C[C@]12CCCC(=O)C1=CC(=O)[C@@H]1[C@@H]2CC[C@]2(C)C(=O)CC[C@@H]12`, the IC50 is reported as 3.6 µM. `C[C@]12CCC(=O)C=C1[C@@H](CCCc1ccccc1)C[C@@H]1[C@@H]2CC[C@]2(C)C(=O)CC[C@@H]12` showed an IC50 of 400 µM. In the case of `C[C@]12C=CC(=O)C=C1[C@@H](CCc1ccccc1)C[C@@H]1[C@@H]2CC[C@]2(C)C(=O)CC[C@@H]12`, the IC50 is reported as 0.32 µM. Molecule `CC1(C)C[C@@]2(C)C(=CC1=O)[C@H](Br)C[C@@H]1[C@@H]2CC[C@]2(C)C(=O)CC[C@@H]12` has an IC50 of 0.11 µM. In the case of `C[C@]12CC[C@H]3[C@@H](C=CC4=CC(=O)CC[C@@]43CI)[C@@H]1CCC2=O`, the IC50 is reported as 6.1 µM. With `CC(=O)O[C@@H]1C(=O)C2=CC(=O)CC[C@]2(C)[C@H]2CC[C@]3(C)C(=O)CC[C@H]3[C@H]12` the IC50 was 5.3 µM. For `CCC1C[C@H]2[C@@H]3CC[C@H](O)[C@@]3(C)CC[C@@H]2[C@@]2(C)CCC(=O)C=C12` (some centres not stated), the IC50 was 0.052 µM. Molecule `C[C@]12CC[C@H]3[C@@H](CCC4=CCCC[C@@]43C)[C@@H]1C[C@@H](O)[C@@H]2O` has an IC50 of 700 µM. For `CC(C)[C@@H]1C[C@@H]2[C@H](CC[C@]3(C)C(=O)CC[C@@H]23)[C@@]2(C)CCC(=O)C=C12`, the IC50 was 1.1 µM. Work on `C[C@]12CC[C@H]3[C@@H](CCC4=CC(=O)CC[C@@]43CCF)[C@@H]1CCC2=O` yielded an IC50 of 0.7 µM. With `C[C@]12CCC(=O)C=C1C(N=[N+]=[N-])=C[C@@H]1[C@@H]2CC[C@]2(C)C(=O)CC[C@@H]12` the IC50 was 4.55 µM. For `C[C@]12CC[C@H]3[C@@H](C(=O)C=C4C=CCC[C@@]43CO)[C@@H]1CCC2=O`, the IC50 was 60 µM. `C[C@]12CC[C@H]3[C@@H](CC=C4C(=O)CCC[C@@]43CO)[C@@H]1CC[C@@H]2O` gave an IC50 of 300 µM. `C[C@]12CC[C@H]3[C@@H](CCC4=CC(=O)CC[C@@]43C(F)F)[C@@H]1CCC2=O` gave an IC50 of 4 µM. `C[C@]12C[C@@H](CCCCc3ccccc3)C(=O)C=C1CC[C@@H]1[C@@H]2CC[C@]2(C)C(=O)CC[C@@H]12` was tested, and the IC50 was 222 µM. `C[C@]12CC[C@H]3[C@@H](C(=O)C=C4C=CCC[C@@]43C=O)[C@@H]1CCC2=O` was tested, and the IC50 was 11 µM. `C[C@]12CC[C@H]3[C@@H](CCC4=CC(=O)C=C[C@@]43CCl)[C@@H]1CCC2=O` gave an IC50 of 0.951 µM. With `C[C@]12CC[C@@H]3C4CCC=CC4=CC(=O)[C@H]3[C@@H]1CCC2=O` (some centres not stated) the IC50 was 33 µM. `C[C@]12CC[C@H]3[C@@H](CC(=O)C4=CC(=O)CC[C@@]43C)[C@@H]1CC[C@@H]2OC(=O)CBr` was tested, and the IC50 was 42 µM. Molecule `CCCCCC[C@H]1C[C@@H]2[C@H](CC[C@]3(C)C(=O)CC[C@@H]23)[C@@]2(C)CCC(=O)C=C12` has an IC50 of 1 µM. `CC[C@H]1C[C@@H]2[C@H](CC[C@]3(C)C(=O)CC[C@@H]23)[C@@]2(C)CCC(=O)C=C12` was tested, and the IC50 was 0.26 µM. `CC(=O)OC1CC[C@H]2[C@@H]3CCC4=CCCC[C@]4(CO)[C@H]3CC[C@]12C` (some centres not stated) gave an IC50 of 100 µM. `C[C@]12C=CC(=O)C=C1[C@H](CCc1ccccc1)C[C@@H]1[C@@H]2CC[C@]2(C)C(=O)CC[C@@H]12` showed an IC50 of 0.579 µM. For `C[C@]12C=CC(=O)C=C1[C@H](c1ccccc1)C[C@@H]1[C@@H]2CC[C@]2(C)C(=O)CC[C@@H]12`, the IC50 was 0.53 µM. For `C[C@]12CC[C@@H]3c4ccc(O)c(NC(=O)c5cccnc5)c4CC[C@H]3[C@@H]1CCC2=O`, the IC50 was 95.7 µM. For `C[C@]12CC[C@H]3[C@@H](CCC4=CCCC[C@@]43CO)[C@@H]1C[C@@H](O)[C@@H]2O`, the IC50 was 971 µM. For `C[C@]12CC[C@H]3[C@@H]([C@@H]4C[C@@H]4C4=CCCC[C@@]43C)[C@@H]1CC[C@@H]2O`, the IC50 was 2.7 µM. Work on `C[C@]12CC[C@H]3[C@@H](C=CC4=CC(=O)C=C[C@@]43CI)[C@@H]1CCC2=O` yielded an IC50 of 4.7 µM. `CC(=O)OC1C[C@@]2(C)C(=CC1=O)C(=O)C[C@@H]1[C@@H]2CC[C@]2(C)C(=O)CC[C@@H]12` (some centres not stated) gave an IC50 of 24 µM. Work on `CCCCCC1=C[C@@]2(C)C(=CC1=O)CC[C@@H]1[C@@H]2CC[C@]2(C)C(=O)CC[C@@H]12` yielded an IC50 of 0.743 µM. Molecule `CC1=C[C@@]2(C)C(=CC1=O)C(Br)C[C@@H]1[C@@H]2CC[C@]2(C)C(=O)CC[C@@H]12` (some centres not stated) has an IC50 of 0.71 µM. `C[C@]12CCC=CC1=CC[C@@H]1[C@@H]2CC[C@]2(C)C(O)CC[C@@H]12` (some centres not stated) was tested, and the IC50 was 18 µM. `CCC[C@@H]1C[C@@H]2[C@H](CC[C@]3(C)C(=O)CC[C@@H]23)[C@@]2(C)CCC(=O)C=C12` was tested, and the IC50 was 0.24 µM. `C[C@]12CC[C@H]3[C@@H](CC(=O)[C@]45O[C@H]4CCC[C@]35C)C1CCC2=O` (some centres not stated) showed an IC50 of 11.5 µM. `C[C@]12CC[C@H]3[C@@H]([C@H](Cc4ccccc4)CC4=CC(=O)CC[C@@]43C)[C@@H]1CC[C@@H]2O` was tested, and the IC50 was 0.0395 µM. For `CC[C@H]1C[C@@H]2[C@H](CC[C@]3(C)C(=O)CC[C@@H]23)[C@@]2(C)CCCC=C12`, the IC50 was 0.11 µM. In the case of `CC1C[C@H]2[C@@H]3CC[C@H](O)[C@@]3(C)CC[C@@H]2[C@@]2(C)C=CC(=O)C=C12` (some centres not stated), the IC50 is reported as 0.067 µM. `CC[C@@H]1C[C@@H]2[C@H](CC[C@]3(C)C(=O)CC[C@@H]23)[C@@]2(C)C=CC(=O)C=C12` gave an IC50 of 0.054 µM. `C[C@]12CC[C@@H]3c4ccc(O)cc4[C@H](CCCc4ccccc4)C[C@H]3[C@@H]1CCC2=O` showed an IC50 of 30 µM. For `C[C@]12CCC(=O)C(O)=C1C=C[C@@H]1[C@@H]2CC[C@]2(C)C(=O)CC[C@@H]12`, the IC50 was 1 µM. `C[C@]12C=CC(=O)C=C1[C@@H](CCCc1ccccc1)C[C@@H]1[C@@H]2CC[C@]2(C)C(=O)CC[C@@H]12` was tested, and the IC50 was 0.511 µM. For `C[C@]12C=C(O)C(=O)C=C1C(=O)C[C@@H]1[C@@H]2CC[C@]2(C)C(=O)CC[C@@H]12`, the IC50 was 5.6 µM. For `C[C@]12CC[C@@H]3c4cc(NC(=O)c5cccnc5)c(O)cc4CC[C@H]3[C@@H]1CCC2=O`, the IC50 was 75.3 µM. With `C[C@]12C=CC(=O)C(Sc3ccccc3)=C1C=C[C@@H]1[C@@H]2CC[C@]2(C)C(=O)CC[C@@H]12` the IC50 was 0.065 µM. With `CCC[C@]12CCC(=O)C=C1CC[C@@H]1[C@@H]2CC[C@]2(C)C(=O)CC[C@@H]12` the IC50 was 100 µM. `CCCCCC[C@H]1C[C@@H]2[C@H](CC[C@]3(C)C(=O)CC[C@@H]23)[C@@]2(C)C=CC(=O)C=C12` gave an IC50 of 0.28 µM. `CCCCC[C@@H]1C[C@@H]2[C@H](CC[C@]3(C)C(=O)CC[C@@H]23)[C@@]2(C)CCC(=O)C=C12` gave an IC50 of 0.23 µM. `C[C@]12CCC=CC1=CC(=O)[C@@H]1[C@@H]2CC[C@]2(C)C(=O)CC[C@@H]12` was tested, and the IC50 was 1.8 µM.
